Test results reported in patent US8859587B2, “(2E)-3-phenyl-N-[2,2,2-Trifluoro-1-[[8-quinolineamino)thiomethyl]amino]ethyl]-2-acrylamide and pharmaceutical uses thereof” (Chinese PLA General Hospital, priority 2010, dated 2014).
Read-outs that look alike come from different tables or passages of the source. Marks after values point to notes of the source that are not given here.

Tests used:
[1] = test system: apoptosis stimulation irrelevant to endocytoplasmic reticulum stress; experiment: Protection against apoptosis stimulation irrelevant to endocytoplasmic reticulum stress; assay type: cell-based
[2] = test system: primary cardiac muscle cells; assay type: cell-based, Wistar rats; details: 48 h, MTT, normal cells
Method: Animal: newly born Wistar rats, rat age: within 24 h, male and female
(§1) The separation and culture of cardiomyocyte refer to the method of differential adhesion separation (Kreider, A. Messing, H. Doan, S. U. Kim, R. P. Lisak and D. E. Pleasure, Enrichment of Schwann cell cultures from neonatal rat sciatic nerve by differential adhesion, Brain Res 2 (1981), pp. 433-444.), Wistar neonate rats newly born within 24 h were used to obtain primary cardiac muscle cells.
The separated primary culture of cardiac muscle cells as obtained by the above method were inoculated in an amount of 10^4 cells per well to a 96-well plate, and the volume of each well was 100 μl (marginal wells were filled with sterile PBS). After being cultivated in 5% CO2 and 37° C. incubator for 4 d, they were added with the compound of Formula 1 at different concentrations (0.3 μM, 1 μM, 3 μM, 10 μM, 30 μM, 100 μM), 3 double-wells were set for each concentration, at the same time, zero setting wells (culture medium, MTT, DMSO), and control wells (culture medium, DMSO) were also set. After continuous inoculation for 48 h, each well was added with 20 μl of MTT solution (5 mg/ml, formulated with PBS (pH=7.4), i.e., 0.5% MTT), and the cultivation was continued for 4 h. After the end of cultivation, culture medium in wells was carefully sucked out. Each well was added with 150 μl of DMSO, shaken at a low speed in a shaking table for 10 min, so that the crystal was sufficiently dissolved. The optical density (OD) value of each well was measured at wavelength of 550 nm by enzyme-linked immunoassay instrument, and each well was repeatedly measured for 5 times and the results were recorded.

[3] = test system: primary cardiac muscle cells induced by TM; experiment: Cardiomyocyte apoptosis induced by TM, TUNEL detection; assay type: cell-based, Wistar rats; details: for TUNEL detection (%) cardiomyocyte apoptosis rate: 24 h, n = 6
Method: (§2) The primary cardiac muscle cells obtained by the method according to the culture method of primary cardiac muscle cells of Example 1 were added with tunicamycin (TM) on the 4th day to perform interference test. The cells were randomly divided into 5 groups: solvent control group (DMSO), TM interference group (5 μg/ml), Compound of Formula I+TM interference group (10 μM+5 μg/ml), Compound of Formula I interference group ([…]+5 μg/ml), Compound of Formula I interference group ([…]+5 μg/ml).
It was 24 h after drug interference, the apoptotic cells were detected by terminal deoxynucleotidyl transferase-mediated biotinylated UTP nick end labeling (TUNEL) method, and the cells were treated according to the specification of kit. The cells treated with 0.1 mg/ml DNase I and growing on a glass slide were used as positive control. 5 or more visual fields were randomly selected under light microscope, the apoptotic cells (brown yellow granules seen in nucleus) among the cells were counted. Apoptosis rat=(number of positively stained nuclei/number of all nuclei)×100%.

[4] = test system: caspase-12 and cleaved caspase-12; experiment: Western blot of caspase-12 and cleaved caspase-12 in TM-induced cardiac muscle cells; assay type: cell-based, Wistar rats
Method: (§3) (12000 rpm×10 min), collected supernatant. Nitrocellulose membrane was dipped in a transferring buffer for 15-20 min in advance. Sampled in 50 μg protein/lane, subjected to 10% polyacrylamide gel SDS-PAGE electrophoretic separation, the gel was then tiled in electrotransferring clamp, in which sponge, filter paper, gel, nitrocellulose membrane, filter paper and sponge were mounted from negative electrode to positive electrode in order. Constant current 350 mA, electrotransferred for 45 min. Electrotransferring membrane to […], the nitrocellulose membrane was taken out, the membrane was washed with TBST for 2 min, sealed with 5% defatted milk powder at room temperature for 1 h, added with first antibody (1:1000) and incubated at 4° C. overnight, the membrane was washed with TBST, 3 times×5 min, then […] second antibody was added, incubated at room temperature for 1 h, washed with TBST, 3 times×5 min, soaked separately with TSM1 and TSM2 for 5 min and 10 min, developed with chromogenic substrates 6.6 μl NBT and 3.3 μl BCIP dissolved in 1 ml of TSM2, after bonds become clear, the reaction was terminated by washing with water. After the end of development, the records were stored by scanning or taking photos.

[5] = test system: cardiac muscle cells induced by Tunicamycin (TM); experiment: Survival rate of TM-induced cardiac muscle cells detected by MTT method; assay type: cell-based, Wistar rats; details: for Cell survival rate (%): MTT
Method: as §1
The separated cardiac muscle cells were inoculated in an amount of 10^4 cells per well to a 96-well plate, and the volume of each well was 100 μl (marginal wells were filled with sterile PBS). […] After continuous inoculation, each well was added with 20 μl of MTT solution (5 mg/ml, formulated with PBS (pH=7.4), i.e., 0.5% MTT), and the cultivation was continued for 4 h. After the end of cultivation, culture medium in wells was carefully sucked out. Each well was added with 150 μl of DMSO, shaken at a low speed in a shaking table for 10 min, so that the crystal was sufficiently dissolved. The optical density (OD) value of each well was measured at wavelength of 490 nm by enzyme-linked immunoassay instrument, and each well was repeatedly measured for 3 times and the results were recorded. The cell survival rate at each time point was calculated according to: […], and a cell growth curve was drawn by using time as abscissa and optical density as ordinate.

elF2α and P-elF2α = experiment: Western blot of elF2α and P-elF2α expression; assay type: cell-based, Wistar rats; details: 1, 2, 5, 10, 20, 40 μM for 48 h
Method: as §3

[6] = test system: primary cardiac muscle cells induced by TM; experiment: Cardiomyocyte apoptosis induced by TM, AnnexinV-FITC flow cytometer; assay type: cell-based, Wistar rats; details: for Cardiomyocyte apoptosis rate detected by flow cytometer (%): 24 h
Method: as §2
it is 24 h after drug interference, the cells were treated by the method of AnnexinV-FITC apoptosis kit, and the apoptosis was detected within 1 h by using a flow cytometer (BD ACScalibur, US Becton-Dickinson Company). For each sample, 14000 cells were collected and analyzed, the test was repeated for 3 times, and the average value was used as a result.

O=C(/C=C/c1ccccc1)NC(NC(=S)Nc1cccc2cccnc12)C(Cl)(Cl)Cl (stereo not drawn) [Compound of Formula I, (2E)-3-phenyl-N-[2,2,2-trichloro-1-[[(8-quinolylamino)thiomethyl]amino]ethyl]-2-acrylamide]
protection against apoptosis stimulation irrelevant to endocytoplasmic reticulum stress [1]: does not protect apoptosis stimulation irrelevant to endocytoplasmic reticulum stress
Cardiomyocyte survival rate (%) ([2]; 0.3 μM): 98.8562 ± 6.7316^a %
Cardiomyocyte survival rate (%) ([2]; 1 μM): 91.6667 ± 7.6257^a %
Cardiomyocyte survival rate (%) ([2]; 3 μM): 94.5261 ± 3.7997^a %
Cardiomyocyte survival rate (%) ([2]; 10 μM): 102.7778 ± 3.0645^a %
Cardiomyocyte survival rate (%) ([2]; 30 μM): 105.8007 ± 3.2639^a %
Cardiomyocyte survival rate (%) ([2]; 100 μM): 104.2484 ± 7.3625^a %
TUNEL detection (%) cardiomyocyte apoptosis rate ([3]; 10 μM + TM 5 μg/mL): 25.75 ± 0.97 ^b %
TUNEL detection (%) cardiomyocyte apoptosis rate ([3]; 20 μM + TM 5 μg/mL): 24.94 ± 0.82 ^b %
TUNEL detection (%) cardiomyocyte apoptosis rate ([3]; 40 μM + TM 5 μg/mL): 21.15 ± 0.85 ^b c %
apoptosis rate in comparison with the TM interference group (TUNEL) ([3]; 10, 20, 40 μM, P<0.05): significant decrease in apoptosis rate
expression of Cleaved caspase-12 ([4]; 10, 20, 40 μM + TM 5 μg/ml): gradually decreases with the increase of the concentration
Caspase-12 expression ([4]; different concentrations for 24 h): no significant change
Cell survival rate (%) ([5]; 5 μM pretreatment 30 min + TM 5 μg/ml): 82.6106 ± 8.1018 %
Cell survival rate (%) ([5]; 10 μM pretreatment 30 min + TM 5 μg/ml): 83.8371 ± 8.2608 %
Cell survival rate (%) ([5]; 20 μM pretreatment 30 min + TM 5 μg/ml): 84.6255 ± 5.5519 %
Cell survival rate (%) ([5]; 40 μM + TM 5 μg/ml): 85.4139 ± 5.6916 %
cell survival rate in comparison with the TM group ([5]; pretreatment in various concentrations, p<0.05): significant increase of cell survival rate
expression level of P-elF2α (elF2α and P-elF2α): gradually increases with the increase of the concentration
expression levels of elF2α (elF2α and P-elF2α): no significant change
Cardiomyocyte apoptosis rate detected by flow cytometer (%) ([6]; 10 μM + TM 5 μg/ml): 22.98 ± 1.35^ab %
Cardiomyocyte apoptosis rate detected by flow cytometer (%) ([6]; 20 μM + TM 5 μg/ml): 20.13 ± 0.87^ab %
Cardiomyocyte apoptosis rate detected by flow cytometer (%) ([6]; 40 μM + TM 5 μg/ml): 18.64 ± 0.83^ab %
apoptosis rates in comparison with the TM group (flow cytometer) ([6]; 10, 20, 40 μM, P<0.05): significantly decreased apoptosis rates
